Experimental data: the supplement of paper PMC10307832

Columns and labels:
Test in all cases: relative viability (nuclei count vs DMSO), 5 days (fraction); higher = more cells survive
RO-3306 + Olaparib = compound: C1=CC2=C(C=CC(=C2)C=C3C(=O)NC(=NCC4=CC=CS4)S3)N=C1 [RO-3306] + O=C(c1cc(Cc2n[nH]c(=O)c3ccccc23)ccc1F)N1CCN(C(=O)C2CC2)CC1 [Olaparib] (partner 8 µM)
Outline: (§1)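 Relative viability divides the nuclei count in treated wells by that in vehicle wells. Lung cancer cell lines were seeded in 1536-well plates, dosed by pin tool the next day, and fixed and stained after 5 days in one step with final 0.05% Triton X-100, 1% formaldehyde and 1 ug/ml Hoechst. Dosing was a single drug or a fixed anchor-drug dose plus five library-drug doses (not always all listed) in √10 steps, and values are medians of duplicate plates imaged at 4×.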

RO-3306 + Navitoclax = compound: C1=CC2=C(C=CC(=C2)C=C3C(=O)NC(=NCC4=CC=CS4)S3)N=C1 [RO-3306] + CC1(C)CCC(c2ccc(Cl)cc2)=C(CN2CCN(c3ccc(C(=O)NS(=O)(=O)c4ccc(N[C@H](CCN5CCOCC5)CSc5ccccc5)c(S(=O)(=O)C(F)(F)F)c4)cc3)CC2)C1 [Navitoclax] (partner 0.5 µM)
Outline: as §1

[1] = compound: O=S(=O)(c1ccccc1)N(CC(F)(F)F)c1ccc(C(O)(C(F)(F)F)C(F)(F)F)cc1 + CS(=O)(=O)N1CCN(Cc2cc3nc(-c4cccc5[nH]ncc45)nc(N4CCOCC4)c3s2)CC1 [Pictilisib] (partner 1 µM)
Outline: as §1

[2] = compound: O=S(=O)(c1ccccc1)N(CC(F)(F)F)c1ccc(C(O)(C(F)(F)F)C(F)(F)F)cc1 + C[C@@H](Oc1cc(-c2cnn(C3CCNCC3)c2)cnc1N)c1c(Cl)ccc(F)c1Cl [Crizotinib] (partner 1 µM)
Outline: as §1

[3] = compound: O=S(=O)(c1ccccc1)N(CC(F)(F)F)c1ccc(C(O)(C(F)(F)F)C(F)(F)F)cc1 + CC(=O)c1c(C)c2cnc(Nc3ccc(N4CCNCC4)cn3)nc2n(C2CCCC2)c1=O [Palbociclib] (partner 0.5 µM)
Outline: as §1

Cell Line	relative viability (RO-3306 + Olaparib; first compound 0.01 µM)	relative viability (RO-3306 + Olaparib; first compound 0.03162 µM)	relative viability (RO-3306 + Olaparib; first compound 0.1 µM)	relative viability (RO-3306 + Olaparib; first compound 0.3162 µM)	relative viability (RO-3306 + Olaparib; first compound 1 µM)	relative viability (RO-3306 + Navitoclax; first compound 0.01 µM)	relative viability (RO-3306 + Navitoclax; first compound 0.03162 µM)	relative viability (RO-3306 + Navitoclax; first compound 0.1 µM)	relative viability (RO-3306 + Navitoclax; first compound 0.3162 µM)	relative viability (RO-3306 + Navitoclax; first compound 1 µM)	relative viability ([1]; first compound 0.8 µM)	relative viability ([1]; first compound 2.53 µM)	relative viability ([1]; first compound 8 µM)	relative viability ([2]; first compound 0.8 µM)	relative viability ([2]; first compound 2.53 µM)	relative viability ([2]; first compound 8 µM)	relative viability ([3]; first compound 0.8 µM)	relative viability ([3]; first compound 2.53 µM)	relative viability ([3]; first compound 8 µM)
NCI-H1651	0.177	0.168	0.181	0.174	0.177	0.982	0.854	1.04	1.14	0.882	0.681	0.598	0.598	1.02	0.882	0.849	0.555	0.503	0.5
NCI-H1666	0.749	0.749	0.693	0.685	0.729	0.954	0.871	0.858	0.86	0.779	0.434	0.418	0.398	0.96	0.795	0.82	0.645	0.657	0.601
NCI-H1734	0.703	0.515	0.632	0.622	0.551	1	0.564	0.922	0.797	0.873	0.549	0.48	0.429	0.789	0.728	0.649	0.348	0.363	0.326
NCI-H1755	0.973	0.902	0.867	0.839	0.953	1.1	0.919	1.04	1.01	1.05	0.376	0.361	0.382	0.96	0.774	0.782	0.471	0.46	0.464
NCI-H1792	0.544	–	0.484	0.51	0.436	0.74	–	0.614	0.599	0.311	0.191	0.184	0.165	0.843	0.75	0.818	0.614	0.549	0.453
NCI-H1915	0.276	0.235	0.263	0.246	0.255	0.808	0.797	0.792	0.781	0.718	0.965	1.1	1.13	0.958	0.894	0.834	0.46	0.577	0.525
NCI-H1944	0.443	0.439	0.346	0.414	0.433	1.11	1.03	0.963	1.09	0.993	0.3	0.341	0.357	1.2	1.11	1.04	0.342	0.303	0.332
NCI-H1975	1.07	0.711	0.835	0.918	0.953	1.49	0.986	1.22	1.12	1.01	0.28	0.264	0.249	1.03	1.01	0.919	0.71	0.567	0.644
NCI-H1993	0.993	0.878	1.02	0.995	0.415	–	0.926	0.892	0.864	0.83	0.772	0.782	1.07	0.855	0.686	0.799	0.57	0.511	0.594
NCI-H2009	0.789	0.684	0.694	0.796	0.727	1.2	1.14	1.17	1.09	1.13	0.814	0.751	0.783	0.981	0.888	0.824	0.174	0.238	0.223
NCI-H2023	0.469	0.437	0.422	0.463	0.379	1.05	0.912	0.898	0.943	1.01	0.183	0.221	0.193	0.754	0.524	0.61	0.335	0.328	0.27
NCI-H2085	0.699	0.685	0.811	0.714	0.757	1.12	1.08	1.09	1.17	1.07	0.428	0.543	0.455	0.836	0.852	0.844	0.432	0.431	0.413
NCI-H2087	0.626	0.476	0.671	0.723	0.656	0.999	1.15	0.995	1.08	0.937	0.868	0.993	0.848	1.11	0.841	0.918	0.253	0.183	0.261
NCI-H2126	0.945	0.901	0.902	0.9	0.932	0.868	0.816	0.822	0.858	0.756	0.489	0.513	0.5	1.08	1.02	1.03	0.344	0.345	0.355
NCI-H2170	0.658	0.589	0.631	0.546	0.509	0.571	0.447	0.593	0.62	0.595	0.305	0.291	0.307	1.25	1.19	1.21	0.433	0.353	0.356
NCI-H2228	0.603	0.601	0.645	0.654	0.524	1.19	0.805	0.673	1.07	0.62	0.414	0.366	0.26	0.389	0.354	0.462	0.989	0.639	0.722
